Experimental data published in PMC7914897, “Cytotoxic Potential of a-Azepano- and 3-Amino-3,4-SeCo-Triterpenoids” (International Journal of Molecular Sciences, 2021).

Experiments:
COLO 205 (Colon cancer) = assay: NCI-60 screen (SRB, 48 h)
MCF7 (Breast cancer) = assay: NCI-60 screen (SRB, 48 h); conditions: Homo sapiens
Renal Cancer subpanel = assay: NCI-60 screen, subpanel; conditions: Homo sapiens
RXF 393 (Renal cancer) = assay: NCI-60 screen (SRB, 48 h); conditions: Homo sapiens
Colon Cancer subpanel = assay: NCI-60 screen, subpanel; conditions: Homo sapiens
[1] = tested on: MDA-MB-468 (Breast cancer); assay: cells; conditions: Homo sapiens
SK-MEL-5 (Melanoma) = assay: NCI-60 screen (SRB, 48 h); conditions: Homo sapiens
CAKI-1 (Renal cancer) = assay: NCI-60 screen (SRB, 48 h); conditions: Homo sapiens
Breast cancer subpanel = assay: NCI-60 screen, subpanel; conditions: Homo sapiens
Prostate cancer subpanel = assay: NCI-60 screen, subpanel; conditions: Homo sapiens
SF-295 (CNS cancer) = assay: NCI-60 screen (SRB, 48 h); conditions: Homo sapiens
[2] = tested on: NCI-H322M (NSC lung cancer); assay: NCI-60 screen (SRB, 48 h); conditions: Homo sapiens
IGROV1 (Ovarian cancer) = assay: NCI-60 screen (SRB, 48 h); conditions: Homo sapiens
HL-60(TB) (Leukemia) = assay: NCI-60 screen (SRB, 48 h); format: cell-based; conditions: Homo sapiens
SR (Leukemia) = assay: NCI-60 screen (SRB, 48 h); format: cell-based
UO-31 (Renal cancer) = assay: NCI-60 screen (SRB, 48 h); conditions: Homo sapiens
EKVX (NSC lung cancer) = assay: NCI-60 screen (SRB, 48 h); conditions: Homo sapiens
MOLT-4 (Leukemia) = assay: NCI-60 screen (SRB, 48 h); conditions: Homo sapiens
PC-3 (Prostate cancer) = assay: NCI-60 screen (SRB, 48 h); conditions: Homo sapiens
NSC lung cancer subpanel = assay: NCI-60 screen, subpanel; conditions: Homo sapiens
KM12 (Colon cancer) = assay: NCI-60 screen (SRB, 48 h); conditions: Homo sapiens
SNB-19 (CNS cancer) = assay: NCI-60 screen (SRB, 48 h); conditions: Homo sapiens
BT-549 (Breast cancer) = assay: NCI-60 screen (SRB, 48 h); format: cell-based; conditions: Homo sapiens
[3] = tested on: NCI-H460 (NSC lung cancer); assay: NCI-60 screen (SRB, 48 h); conditions: Homo sapiens
OVCAR-3 (Ovarian cancer) = assay: cells; conditions: Homo sapiens

## CC(C)=C1CCC=C2CC[C@]3(C)[C@H](CC[C@@H]4[C@@]5(C)CCCNC(C)(C)[C@@H]5CC[C@]43C)[C@H]21 [Compound 9]
COLO 205 (Colon cancer); COLO 205, 1 dose 10 µM
  Growth % of the Most Sensitive Cell Lines: −93.54%
COLO 205 (Colon cancer); Homo sapiens, COLO 205
  GI50: 1.48 µM
COLO 205 (Colon cancer); Homo sapiens, COLO 205, 48 h, read-out: TGI
  IC (TGI): 2.97 µM
MCF7 (Breast cancer); MCF7
  GI50: 1.77 µM
MCF7 (Breast cancer); MCF7, 48 h, read-out: TGI
  IC (TGI): 3.54 µM
Renal Cancer subpanel; 48 h, read-out: TGI MG_MID
  IC (TGI): 3.25 µM
Renal Cancer subpanel; read-out: GI50 MG_MID
  GI50: 1.72 µM
Renal Cancer subpanel; read-out: LC50 MG_MID
  CC50: 6.03 µM
RXF 393 (Renal cancer); RXF 393
  GI50: 1.61 µM
RXF 393 (Renal cancer); RXF 393, 48 h, read-out: TGI
  IC (TGI): 3.1 µM
RXF 393 (Renal cancer); RXF 393, read-out: LC50
  CC50: 5.98 µM
Colon Cancer subpanel; 48 h, read-out: TGI MG_MID
  IC (TGI): 3.03 µM
Colon Cancer subpanel; read-out: GI50 MG_MID
  GI50: 1.55 µM
[1]; MDA-MB-468
  GI50: 1.68 µM
[1]; MDA-MB-468, 48 h, read-out: TGI
  IC (TGI): 3.3 µM
[1]; MDA-MB-468, read-out: LC50
  CC50: 6.5 µM
SK-MEL-5 (Melanoma); SK-MEL-5
  GI50: 1.7 µM
SK-MEL-5 (Melanoma); SK-MEL-5, 48 h, read-out: TGI
  IC (TGI): 3.08 µM
SK-MEL-5 (Melanoma); SK-MEL-5, read-out: LC50
  CC50: 5.56 µM
CAKI-1 (Renal cancer); CAKI-1
  GI50: 1.69 µM
CAKI-1 (Renal cancer); CAKI-1, 48 h, read-out: TGI
  IC (TGI): 3.05 µM
CAKI-1 (Renal cancer); CAKI-1, read-out: LC50
  CC50: 5.53 µM
Breast cancer subpanel; 48 h, read-out: TGI MG_MID
  IC (TGI): 3.49 µM
Breast cancer subpanel; read-out: GI50 MG_MID
  GI50: 1.72 µM
Breast cancer subpanel; read-out: LC50 MG_MID
  CC50: 7.06 µM
Prostate cancer subpanel; 48 h, read-out: TGI MG_MID
  IC (TGI): 3.29 µM
Prostate cancer subpanel; read-out: GI50 MG_MID
  GI50: 1.78 µM
Prostate cancer subpanel; read-out: LC50 MG_MID
  CC50: 6.08 µM
SF-295 (CNS cancer); SF-295
  GI50: 1.87 µM
SF-295 (CNS cancer); SF-295, 48 h, read-out: TGI
  IC (TGI): 3.42 µM
SF-295 (CNS cancer); SF-295, read-out: LC50
  CC50: 6.24 µM
[2]
  GI50: 1.68 µM
[2]; 48 h, read-out: TGI
  IC (TGI): 3.07 µM
[2]; read-out: LC50
  CC50: 5.61 µM
IGROV1 (Ovarian cancer); IGROV-1
  GI50: 1.73 µM
IGROV1 (Ovarian cancer); IGROV-1, 48 h, read-out: TGI
  IC (TGI): 3.27 µM
HL-60(TB) (Leukemia)
  GI50: 1.7 µM
HL-60(TB) (Leukemia); 48 h
  IC (TGI): 3.5 µM
HL-60(TB) (Leukemia); read-out: LC50 (the source's name)
  CC50: 7.19 µM
SR (Leukemia)
  TGI: 3.16 µM
SR (Leukemia); Homo sapiens
  GI50: 1.14 µM
UO-31 (Renal cancer); UO-31
  GI50: 1.47 µM
UO-31 (Renal cancer); UO-31, 48 h, read-out: TGI
  IC (TGI): 2.82 µM
UO-31 (Renal cancer); UO-31, read-out: LC50
  CC50: 5.42 µM
EKVX (NSC lung cancer)
  GI50: 1.74 µM
EKVX (NSC lung cancer); 48 h, read-out: TGI
  IC (TGI): 3.38 µM
EKVX (NSC lung cancer); read-out: LC50
  CC50: 6.56 µM
MOLT-4 (Leukemia); MOLT-4
  GI50: 1.59 µM
MOLT-4 (Leukemia); MOLT-4, 48 h, read-out: TGI
  IC (TGI): 3.7 µM
PC-3 (Prostate cancer); PC-3
  GI50: 1.58 µM
PC-3 (Prostate cancer); PC-3, 48 h, read-out: TGI
  IC (TGI): 3.02 µM
PC-3 (Prostate cancer); PC-3, read-out: LC50
  CC50: 5.78 µM
NSC lung cancer subpanel; 48 h, read-out: TGI MG_MID
  IC (TGI): 3.27 µM
NSC lung cancer subpanel; read-out: GI50 MG_MID
  GI50: 1.68 µM
NSC lung cancer subpanel; read-out: LC50 MG_MID
  CC50: 6.11 µM
KM12 (Colon cancer); KM12
  GI50: 1.92 µM
KM12 (Colon cancer); KM12, 48 h, read-out: TGI
  IC (TGI): 3.42 µM
SNB-19 (CNS cancer); SNB-19
  GI50: 1.81 µM
SNB-19 (CNS cancer); SNB-19, 48 h, read-out: TGI
  IC (TGI): 3.36 µM
BT-549 (Breast cancer); BT-549
  GI50: 1.66 µM
BT-549 (Breast cancer); BT-549, 48 h
  IC (TGI): 3.14 µM
BT-549 (Breast cancer); BT-549, read-out: LC50 (the source's name)
  CC50: 5.96 µM
[3]; NCI-H460
  GI50: 1.48 µM
[3]; NCI-H460, 48 h, read-out: TGI
  IC (TGI): 3.09 µM
[3]; NCI-H460, read-out: LC50
  CC50: 6.45 µM
OVCAR-3 (Ovarian cancer); OVCAR-3
  GI50: 1.91 µM
OVCAR-3 (Ovarian cancer); OVCAR-3, 48 h, read-out: TGI
  IC (TGI): 3.37 µM
OVCAR-3 (Ovarian cancer); OVCAR-3, read-out: LC50
  CC50: 5.93 µM
